Measurements published in patent US8093060B2, “Multisite phosphorylated peptide (protein) recognizing compound and detection method, imaging method, alzheimer's disease diagnosing method and reagent kit using the same” (Canon Kabushiki Kaisha, priority 2008, dated 2012).

Legend:
GSK-3β = test: Kinase assay using BODIPY-Zn(Dpa), Tau1P and GSK-3β; assay type: biochemical
Procedure: A kinase assay was performed using Tau1P, a phosphorylated partial sequence peptide of a tau protein, BODIPY-Zn(Dpa) and GSK-3β, which phosphorylates the 231st threonine. The experiment conditions were as follows: 20 μM Tau1P, 20 μM BODIPY-Zn(Dpa), 100 μM ATP, 2 μg of BSA, 50 mM HEPES, 10 mM MgCl2, 10 mM DTT, 2 μM EDTA; pH 7.2; 30° C.; and an excitation wavelength of 540 nm. […] This is a result of phosphorylation of the 231st threonine in Tau1P by GSK-3β, recognition of the phosphorylation by BODIPY-Zn(Dpa) and the resulting interaction.

[1] = Delivery of BODIPY-Zn(Dpa) into brain after intravenous administration; assay type: in vivo, ICR mouse; settings: i.v. 1 mg/kg; for percent of the dose per gram of the mouse brain: rounded; for content in the brain / content in the brain based on the dose: mouse
Procedure: BODIPY-Zn(Dpa) was intravenously administered to an ICR mouse (male, 7 weeks old) to measure the delivery thereof into the brain in vivo. Specifically, BODIPY-Zn(Dpa) (400 μL of 50 μM HBS solution) was injected from the caudal vein at a dose of 1 mg/kg, and the brain was collected at 2 or 30 min after administration. The collected brain (424 to 488 mg) was homogenized in 3 mL of an HBS solution using a spatula and homogenized by ultrasonic irradiation. BODIPY-Zn(Dpa) contained in the brain was quantified by reverse-phase HPLC to obtain the content of BODIPY-Zn(Dpa) in the brain based on the dose (% ID/g: % injected dose per gram of the brain). Fluorescence from the compound (excitation, 520 nm; fluorescence, 545 nm) was utilized for detection by HPLC.

amyloid beta protein = test: Fluorescence staining of AD-affected human brain hippocampal tissue sections, costaining with anti-Aβ antibody; settings: 10 μM probe
Procedure: (§1) To investigate whether an excessively phosphorylated tau protein in brain tissues can be detected, a fluorescence staining experiment of hippocampal tissue sections from a human brain affected by Alzheimer (AD) and a normal brain was performed using BODIPY-Zn(Dpa). Specifically, hippocampal tissue sections from the AD-affected human brain or the normal brain were deparaffinized (xylene immersion for 5 min was repeated three times, then each section was immersed in 100%, 90%, 80% and 70% aqueous ethanol solution in stages [for 2 min each], and finally washed twice with water for 5 min), lipofuscin was removed (washed twice with PBS for 2 min, immersed in 0.25% by weight permanganate potassium/PBS for 30 min, washed twice with PBS for 2 min, immersed in 1% by weight oxalic acid and 1% by weight potassium pyrosulfate/PBS for 6 min and finally washed twice with PBS for 2 min), trypsin treatment was performed (washed twice with PBS-Tween at room temperature for 2 min and 0.05% Trypsin/PBS at 37° C. for 15 min), and finally washed twice with PBS-Tween at room temperature for 5 min, and costaining was performed using an antibody and BODIPY-Zn(Dpa). First, blocking was performed with 10% goat serum (37° C., 30 min) to remove 10% goat serum, then a primary antibody was added, and a reaction was performed at 4° C. for 17 to 19 h. […]

[2] = target: T1, phosphorylated tau aggregate (Homo sapiens, UniProt P10636); test: Fluorescence titration of BODIPY-Zn(Dpa) against phosphorylated tau aggregate (EC50); assay type: binding
T1 construct: made in house; host or cells: Escherichia coli
Procedure: BODIPY-Zn(Dpa) was titrated against a phosphorylated tau aggregate, a tau aggregate, and an amyloid β aggregate to obtain EC50 (a probe concentration at which a half value of the maximum change (ΔFmax) in fluorescence intensity is observed). BODIPY-Zn(Dpa) was titrated against an aggregate at a predetermined concentration (1 μg/mL), and changes in fluorescence intensity at each concentration (ΔF) were plotted. Using a solvent obtained by adding 10% DMSO and 100 μM Zn(NO3)2 to HBS (10 mM HEPES (pH 7.4), 150 mM NaCl), the solution was incubated at 37° C. for 30 min, and fluorescence was measured (excitation wavelength, 490 nm; fluorescence wavelength, 545 nm).

[3] = tested on: tau proteins on a tissue section; test: Fluorescence staining of AD human hippocampal tissue sections treated with dephosphorylating enzyme (PP2A); settings: PP2A 0.5 units/50 μL, 37° C., 24 h
Procedure: To investigate whether an excessively phosphorylated tau protein in brain tissues can be detected, a fluorescence staining experiment of hippocampal tissue sections from a human brain affected by Alzheimer (AD) and a normal brain was performed using BODIPY-Zn(Dpa). […]
Before staining, the sections were treated with a dephosphorylating enzyme (PP2A: 0.5 units/50 μL, 37° C., 24 h), and a fluorescence staining experiment for hippocampal tissue sections was performed according to the procedure in Example 2(12). […] Fluorescence dots observed in the BODIPY-Zn(Dpa) staining and the AT8 staining disappeared after dephosphorylating tau proteins on tissues with PP2A. […] The fluorescence dots in the BODIPY-Zn(Dpa) staining were detected depending on the phosphorylation of tau proteins.

Tau0P = target: T2, Tau0P (Homo sapiens, UniProt P10636); test: Fluorescence titration of BODIPY-Zn(Dpa) with Tau0P; assay type: binding
T2 construct: made in house; host or cells: chemical solid-phase synthesis
Procedure: The phosphorylated peptide-recognizing ability of BODIPY-Zn(Dpa) compound 9 (hereinafter referred to as BODIPY-Zn(Dpa)) was evaluated by measuring fluorescence spectra. Measurement was performed under the following conditions: [BODIPY-Zn(Dpa)]=5 μM; pH 7.2; 50 mM HEPES buffer; and 25° C. The excitation wavelength was λex=530 nm. […] When Tau2P was excessively added, this change reached saturation. The […] calculated from the fluorescence changes was 2.75×10^5 M^−1.

[4] = tested on: phosphorylated tau protein; test: Fluorescence staining of AD-affected human brain hippocampal tissue sections, costaining with tau antibodies; settings: 10 μM probe
Procedure: as §1

T1 sequence (P10636 1-441 isoform P10636-8): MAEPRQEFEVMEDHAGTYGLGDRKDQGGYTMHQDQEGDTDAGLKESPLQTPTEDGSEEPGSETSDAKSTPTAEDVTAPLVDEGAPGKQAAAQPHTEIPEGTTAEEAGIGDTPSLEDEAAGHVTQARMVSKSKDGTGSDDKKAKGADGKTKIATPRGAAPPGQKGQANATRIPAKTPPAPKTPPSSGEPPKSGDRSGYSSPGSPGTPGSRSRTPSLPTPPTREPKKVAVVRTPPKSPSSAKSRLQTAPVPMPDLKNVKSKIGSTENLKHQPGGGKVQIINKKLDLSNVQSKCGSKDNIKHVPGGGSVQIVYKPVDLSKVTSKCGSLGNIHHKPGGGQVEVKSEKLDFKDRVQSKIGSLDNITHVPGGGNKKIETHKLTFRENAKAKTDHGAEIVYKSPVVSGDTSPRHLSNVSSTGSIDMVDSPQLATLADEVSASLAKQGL

SMILES: CC1=C(c2ccc(CN(C)Cc3ccccn3)nc2)C(C)=[N+]2C1=C(c1cc(OCCOCCOCCO)cc(OCCOCCOCCO)c1)c1c(C)c(-c3ccc(CN(C)Cc4ccccn4)nc3)c(C)n1[B-]2(F)F.O=[N+]([O-])[O-].O=[N+]([O-])[O-].O=[N+]([O-])[O-].O=[N+]([O-])[O-].[Zn+2].[Zn+2] [BODIPY-Zn(Dpa)]
- fluorescence intensity change with time (GSK-3β; 20 μM Tau1P, 20 μM BODIPY-Zn(Dpa), 100 μM ATP, 30° C.): increase in fluorescence intensity with time was confirmed
- kinase concentration dependence of fluorescence intensity (GSK-3β; GSK-3β concentration varied): concentration-dependence of GSK-3β was observed
- percent of the dose per gram of the mouse brain ([1]; 2 min after administration): 0.5%
- percent of the dose per gram of the mouse brain ([1]; 30 min after administration): 0.02%
- content in the brain ([1]; 2 min after administration): 99.3 pmol/g brain
- content in the brain based on the dose ([1]; 2 min after administration): 0.496 % ID/g
- content in the brain ([1]; 30 min after administration): 3.96 pmol/g brain
- content in the brain based on the dose ([1]; 30 min after administration): 0.020 % ID/g
- coexistence of fluorescence with Aβ42 (anti-Aβ antibody) staining (amyloid beta protein): did not coexist
- EC50 ([2]; aggregate 1 μg/mL, 37° C., 30 min): 9.1 nM
- affinity (EC50) for phosphorylated tau aggregate relative to amyloid β aggregate ([2]; higher than for the amyloid β aggregate): 70 times
- affinity (EC50) for phosphorylated tau aggregate relative to tau aggregate ([2]; higher than for the tau aggregate): 9 times
- fluorescence dots in staining image after PP2A treatment [3]: disappeared
- fluorescence intensity after PP2A treatment compared with before [3]: significantly decreased
- I/I0 - 1 at saturation (Tau0P; Tau 0P): No change
- fluorescence intensity change on addition of peptide (Tau0P; Tau0P, unphosphorylated): no major change was observed
- coexistence of fluorescence with Tau-2 and AT8 antibody staining [4]: coexisted
